The results in this text go back to patent USRE50663E1, “Heterocycle derivatives as pesticides” (Bayer Aktiengesellschaft, priority 2017, dated 2025).

Type in all cases: in vivo
Assay [1] concerns southern root-knot nematode (Meloidogyne incognita). Put plainly: Meloidogyne incognita test. Particulars: 20 ppm, after 14 days, lettuce. The protocol: Solvent: 125.0 parts by weight of acetone
To produce a suitable active compound formulation, 1 part by weight of active compound is mixed with the stated amount of solvent and the concentrate is diluted to the desired concentration with water.
Vessels are filled with sand, active compound solution, an egg/larvae suspension of the southern root-knot nematode (Meloidogyne incognita) and lettuce seeds. The lettuce seeds germinate and the plants develop. The galls develop on the roots.
After 14 days, the nematicidal efficacy in % is determined by the formation of galls. 100% means that no galls were found; 0% means that the number of galls on the treated plants corresponds to the untreated control.

In assay [2] the test system is green peach aphids (Myzus persicae). Nature of the assay: Myzus persicae oral test. Particulars: 120 h, 4 ppm, after 5 days, read-out: efficacy. The protocol: Solvent: 100 parts by weight of acetone
To produce a suitable active compound formulation, 1 part by weight of active compound is dissolved with the stated parts by weight of solvent and made up to the desired concentration with water.
50 μl of the active compound formulation are transferred into microtitre plates and made up to a final volume of 200 μl with 150 μl of IPL41 insect medium (33%+15% sugar). Subsequently, the plates are sealed with parafilm, which a mixed population of green peach aphids (Myzus persicae) within a second microtitre plate is able to puncture and imbibe the solution.
After 5 days, the efficacy in % is determined. 100% means that all the aphids have been killed; 0% means that no aphids have been killed.

In assay [3] the test system is larvae of the diamondback moth (Plutella xylostella). Nature of the assay: Comparative Plutella xylostella spray test (PLUTMA). Particulars: 168 h, 7 dat, read-out: % efficacy. The protocol:
(§1) Solvent: 14 parts by weight of dimethylformamide
(§2) Emulsifier: alkylaryl polyglycol ether
(§3) To produce a suitable active compound formulation, 1 part by weight of active compound is dissolved with the specified parts by weight of solvent and made up to the desired concentration with water containing an emulsifier concentration of 1000 ppm. To produce further test concentrations, the formulation is diluted with emulsifier-containing water. If the addition of ammonium salts or/and penetrants is required, these are each added in a concentration of 1000 ppm to the formulation solution.
Cabbage leaves (Brassica oleracea) are sprayed with an active ingredient formulation of the desired concentration and infected with larvae of the diamondback moth (Plutella xylostella).
(§4) After the desired time, the kill in % is determined. 100% means that all caterpillars have been killed; 0% means that none of the caterpillars have been killed.

Assay [4] concerns caterpillars of the armyworm (Spodoptera frugiperda). Nature of the assay: Comparative Spodoptera frugiperda spray test (SPODFR). Particulars: 168 h, 7 dat, read-out: % efficacy. The procedure: as §1, §2, §3
Cotton leaves (Gossypium hirsutum) are sprayed with an active ingredient formulation of the desired concentration and populated with caterpillars of the armyworm (Spodoptera frugiperda).
as §4

For assay [5] the test system is unchanged. Put plainly: Comparative Spodoptera frugiperda drench test (SPODFR D). Particulars: soil, 336 h, 14 dat, read-out: % efficacy. The protocol: (§5) Solvent: 7 parts by weight of dimethylformamide
(§6) Emulsifier: 2 parts by weight of alkylaryl polyglycol ether
(§7) To produce a suitable active ingredient formulation, 1 part by weight of active ingredient is mixed with the specified amounts of solvent and emulsifier, and the concentrate is diluted with water to the desired concentration, it being necessary to take into account the volume of soil which is drenched. It should be ensured that a concentration of 40 ppm of emulsifier in the soil is not exceeded. To produce further test concentrations, water is used for dilution.
Maize plants (Zea mays) in pots of soil are watered with an active ingredient formulation of the desired concentration and infected with caterpillars of the armyworm (Spodoptera frugiperda).
as §4

Assay [6] has as its system green peach aphid (Myzus persicae). Nature of the assay: Comparative Myzus persicae spray test (MYZUPE). Particulars: 144 h, 6 dat, read-out: % efficacy. The protocol: as §1, §2, §3
Bell pepper plants (Capsicum annuum) severely infested with the green peach aphid (Myzus persicae) are treated by spraying with the active ingredient formulation in the desired concentration.
After the desired time, the kill in % is determined. 100% means that all the animals have been killed; 0% means that no animals have been killed.

For assay [7] the test system is unchanged. Nature of the assay: Comparative Myzus persicae drench test (MYZUPE D). Particulars: soil, 240 h, 10 dat, read-out: % efficacy. The procedure: as §5, §6, §7
Savoy cabbage (Brassica oleracea) in pots with soil and infested by all stages of the green peach aphid (Myzus persicae) is watered with an active ingredient formulation of the desired concentration.
After the desired period of time, the efficacy in % is determined. 100% means that all the aphids have been killed; 0% means that no aphids have been killed.

For the molecule `CCS(=O)(=O)c1c(-c2nc3cc(C(F)(F)F)cnc3n2C)nc2cc(C3(C#N)CC3)ccn12` [Example I-11, 1-{3-(Ethylsulfonyl)-2-[3-methyl-6-(trifluoromethyl)-3H-imidazo[4,5-b]pyridin-2-yl]imidazo[1,2-a]pyridin-7-yl}cyclopropanecarbonitrile], the “nematicidal efficacy (formation of galls)” value in assay [1] came out at 100%. In addition, the pest or weed control at 4 ppm in assay [2] was 90%. Further, the Emax at 0.16 ppm in assay [3], in assay [4] and in assay [5] was 100% in each case. Also, the Emax at 0.8 ppm in assay [6] is 90%; in assay [7] it was 95%.
